Data reported in PubChem BioAssay AID2060893 (Molecular Pharmacology Branch, DTP, NCI, 2025).

Tested on: K86415-001-R-J1-PDC complex spheroids, viability
Experiment: Anticancer human tumor K86415-001-R-J1-PDC patient-derived lung adenocarcinoma cell line growth inhibition [RAS]
Details: for IC50: curve of first compound; for viability, T/C: stronger effect = lower value
Method in brief: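 Agents were tested in combination matrices in half-log decrements from a top concentration at or near clinical Cmax (10 microM if undetermined). Targets were multi-cell spheroids of tumour lines plus HUVEC and MSC stromal cells.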

[1] = second compound 0.000949 µM, first compound 0.0316 µM
[2] = second compound 0.000949 µM, first compound 0.1 µM
[3] = second compound 0.000949 µM, first compound 0.316 µM
[4] = second compound 0.000949 µM, first compound 1 µM
[5] = second compound 0.000949 µM, first compound 3.16 µM
[6] = second compound 0.000949 µM, first compound 10 µM
[7] = second compound 0.003 µM, first compound 0.0316 µM
[8] = second compound 0.003 µM, first compound 0.1 µM
[9] = second compound 0.003 µM, first compound 0.316 µM
[10] = second compound 0.003 µM, first compound 1 µM
[11] = second compound 0.003 µM, first compound 3.16 µM
[12] = second compound 0.003 µM, first compound 10 µM
[13] = second compound 0.00949 µM, first compound 0.0316 µM
[14] = second compound 0.00949 µM, first compound 0.1 µM
[15] = second compound 0.00949 µM, first compound 0.316 µM
[16] = second compound 0.00949 µM, first compound 1 µM
[17] = second compound 0.00949 µM, first compound 3.16 µM
[18] = second compound 0.00949 µM, first compound 10 µM
[19] = second compound 0.03 µM, first compound 0.0316 µM
[20] = second compound 0.03 µM, first compound 0.1 µM
[21] = second compound 0.03 µM, first compound 0.316 µM
[22] = second compound 0.03 µM, first compound 1 µM
[23] = second compound 0.03 µM, first compound 3.16 µM
[24] = second compound 0.03 µM, first compound 10 µM
[25] = second compound 0.0949 µM, first compound 0.0316 µM
[26] = second compound 0.0949 µM, first compound 0.1 µM
[27] = second compound 0.0949 µM, first compound 0.316 µM
[28] = second compound 0.0949 µM, first compound 1 µM
[29] = second compound 0.0949 µM, first compound 3.16 µM
[30] = second compound 0.0949 µM, first compound 10 µM
[31] = second compound 0.3 µM, first compound 0.0316 µM
[32] = second compound 0.3 µM, first compound 0.1 µM
[33] = second compound 0.3 µM, first compound 0.316 µM
[34] = second compound 0.3 µM, first compound 1 µM
[35] = second compound 0.3 µM, first compound 3.16 µM
[36] = second compound 0.3 µM, first compound 10 µM
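Also: spheroids exposed to agents for seven days before readout.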

SMILES: NC1c2ccccc2OC12CCN(c1cnc3c(N4CCCc5ncccc54)n[nH]c3n1)CC2 (stereo unspecified) + CCn1c(-c2cc(N3CCN(C)CC3)cnc2C(C)OC)c2c3cc(ccc31)-c1csc(n1)CC(NC(=O)C1CC1C)C(=O)N1CCCC(N1)C(=O)OCC(C)(C)C2
- IC50 (second compound 0.000949 µM): < 31.6 nM
- IC50 (second compound 0.003 µM): < 31.6 nM
- IC50 (second compound 0.00949 µM): < 31.6 nM
- IC50 (second compound 0.03 µM): < 31.6 nM
- IC50 (second compound 0.0949 µM): < 31.6 nM
- IC50 (second compound 0.3 µM): < 31.6 nM
- viability, T/C [1]: 17.9%
- viability, T/C [2]: 13.2%
- viability, T/C [3]: 7.58%
- viability, T/C [4]: 9.76%
- viability, T/C [5]: 9.06%
- viability, T/C [6]: 7.7%
- viability, T/C [7]: 9.27%
- viability, T/C [8]: 8.67%
- viability, T/C [9]: 6.53%
- viability, T/C [10]: 6.35%
- viability, T/C [11]: 4.86%
- viability, T/C [12]: 5.29%
- viability, T/C [13]: 7.91%
- viability, T/C [14]: 5.02%
- viability, T/C [15]: 5.89%
- viability, T/C [16]: 4.63%
- viability, T/C [17]: 5.75%
- viability, T/C [18]: 4.91%
- viability, T/C [19]: 5.17%
- viability, T/C [20]: 4.43%
- viability, T/C [21]: 5.11%
- viability, T/C [22]: 5.46%
- viability, T/C [23]: 3.67%
- viability, T/C [24]: 5.21%
- viability, T/C [25]: 3.52%
- viability, T/C [26]: 4.51%
- viability, T/C [27]: 4.52%
- viability, T/C [28]: 3.8%
- viability, T/C [29]: 3.7%
- viability, T/C [30]: 4.75%
- viability, T/C [31]: 4.69%
- viability, T/C [32]: 4.26%
- viability, T/C [33]: 4.59%
- viability, T/C [34]: 3.96%
- viability, T/C [35]: 4.65%
- viability, T/C [36]: 4.77%

SMILES: CCC(CC)c1cc(NC2CCC(N)C2)n2nccc2n1 (stereo unspecified) + CCn1c(-c2cccnc2C(C)OC)c2c3cc(ccc31)N1CCOC(CC(NC(=O)C(C(C)C)N(C)C(=O)C3(F)CCN(C(=O)C#CC(C)(C)N(C)C)CC3)C(=O)N3CCCC(N3)C(=O)OCC(C)(C)C2)C1
- IC50 (second compound 0.000949 µM): 31.6 nM
- IC50 (second compound 0.003 µM): < 31.6 nM
- IC50 (second compound 0.00949 µM): < 31.6 nM
- IC50 (second compound 0.03 µM): < 31.6 nM
- IC50 (second compound 0.0949 µM): < 31.6 nM
- IC50 (second compound 0.3 µM): < 31.6 nM
- viability, T/C [1]: 37.5%
- viability, T/C [2]: 40.4%
- viability, T/C [3]: 39.2%
- viability, T/C [4]: 61.9%
- viability, T/C [5]: 2.95%
- viability, T/C [6]: 2.43%
- viability, T/C [7]: 14.9%
- viability, T/C [8]: 14.6%
- viability, T/C [9]: 13%
- viability, T/C [10]: 20.1%
- viability, T/C [11]: 3.32%
- viability, T/C [12]: 3.8%
- viability, T/C [13]: 15.2%
- viability, T/C [14]: 12.3%
- viability, T/C [15]: 15%
- viability, T/C [16]: 20.3%
- viability, T/C [17]: 2.22%
- viability, T/C [18]: 3.83%
- viability, T/C [19]: 12.6%
- viability, T/C [20]: 12.1%
- viability, T/C [21]: 15.5%
- viability, T/C [22]: 13.3%
- viability, T/C [23]: 1.81%
- viability, T/C [24]: 3.54%
- viability, T/C [25]: 12.4%
- viability, T/C [26]: 13.6%
- viability, T/C [27]: 15.6%
- viability, T/C [28]: 13.9%
- viability, T/C [29]: 1.94%
- viability, T/C [30]: 3.52%
- viability, T/C [31]: 11.8%
- viability, T/C [32]: 14.9%
- viability, T/C [33]: 12.4%
- viability, T/C [34]: 9.04%
- viability, T/C [35]: 2.28%
- viability, T/C [36]: 3.42%

SMILES: Nc1ccn(C2OC(CO)C(O)C2(F)F)c(=O)n1 (stereo unspecified) + CCn1c(-c2cc(N3CCN(C)CC3)cnc2C(C)OC)c2c3cc(ccc31)-c1csc(n1)CC(NC(=O)C1CC1C)C(=O)N1CCCC(N1)C(=O)OCC(C)(C)C2
- IC50 (second compound 0.000949 µM): < 3.16 nM
- IC50 (second compound 0.003 µM): < 3.16 nM
- IC50 (second compound 0.00949 µM): < 3.16 nM
- IC50 (second compound 0.03 µM): < 3.16 nM
- IC50 (second compound 0.0949 µM): < 3.16 nM
- IC50 (second compound 0.3 µM): < 3.16 nM
- viability, T/C (second compound 0.000949 µM, first compound 0.00316 µM): 47%
- viability, T/C (second compound 0.000949 µM, first compound 0.01 µM): 45.2%
- viability, T/C [1]: 34%
- viability, T/C [2]: 26.3%
- viability, T/C [3]: 21.8%
- viability, T/C [4]: 16.3%
- viability, T/C (second compound 0.003 µM, first compound 0.00316 µM): 24.2%
- viability, T/C (second compound 0.003 µM, first compound 0.01 µM): 19.4%
- viability, T/C [7]: 18.2%
- viability, T/C [8]: 19.3%
- viability, T/C [9]: 15.4%
- viability, T/C [10]: 11.8%
- viability, T/C (second compound 0.00949 µM, first compound 0.00316 µM): 11.9%
- viability, T/C (second compound 0.00949 µM, first compound 0.01 µM): 8.79%
- viability, T/C [13]: 10.1%
- viability, T/C [14]: 13.8%
- viability, T/C [15]: 9.53%
- viability, T/C [16]: 9.18%
- viability, T/C (second compound 0.03 µM, first compound 0.00316 µM): 6.18%
- viability, T/C (second compound 0.03 µM, first compound 0.01 µM): 6.2%
- viability, T/C [19]: 6.46%
- viability, T/C [20]: 5.05%
- viability, T/C [21]: 3.47%
- viability, T/C [22]: 4.42%
- viability, T/C (second compound 0.0949 µM, first compound 0.00316 µM): 4.43%
- viability, T/C (second compound 0.0949 µM, first compound 0.01 µM): 4.18%
- viability, T/C [25]: 4.08%
- viability, T/C [26]: 3.58%
- viability, T/C [27]: 2.79%
- viability, T/C [28]: 2.41%
- viability, T/C (second compound 0.3 µM, first compound 0.00316 µM): 3.51%
- viability, T/C (second compound 0.3 µM, first compound 0.01 µM): 3.18%
- viability, T/C [31]: 3.3%
- viability, T/C [32]: 2.52%
- viability, T/C [33]: 3.52%
- viability, T/C [34]: 2.26%
